Experimental data as given in patent publication US20260199426A1, “CYCLIC LIPOPEPTIDE ANTIBIOTIC COMPOUNDS FOR USE IN THE TREATMENT OF PROTEIN AGGREGATION DISEASE” (DEUTSCHES ZENTRUM FÜR NEURODEGENERATIVE ERKRANKUNGEN E. V., priority 2022, published 2026).
*1 amine or outer side, *2 acyl side, *3 side chain or, on linkers, in order; H or OH if unused. Where a SMILES comes first, the peptide text is derived from it. Bridges are numbered along the chain shown (N, C = ends). [ ]: non-standard residue; d: D form. The star is where a group is joined. ξ: configuration not given here. X2 = O=C(C(N[*:1])c1ccc(OC2OC(CO)C(O)C(O)C2OC2OC(CO)C(O)C(O)C2O)cc1)[*:2]; Octa(2Z,4E)dienoyl(7-Me) = CC(C)C/C=C/C=C\C(=O)*; ξPhg(3-Cl-4-OH) = NC(C(=O)O)c1ccc(O)c(Cl)c1; X1 = NC(=O)C(O[*:3])C(N[*:1])C(=O)[*:2]; Hpg = N[CH](C(=O)O)c1ccc(O)cc1; Orn = NCCC[CH](N)C(=O)O

Tests used:
[1] = test system: NM region of the Sup35 prion protein (NM-GFP) in HEK cells; format: cell-based, human
[2] = test system: NM region of the Sup35 prion protein (HA-epitope tagged NM) in N2a cells; format: cell-based; details: 500 nM NM fibrils, 24 h
[3] = test system: 22 L scrapie prion infection of fibroblast cell clone L929 15.9 (PrP^Sc); format: cell-based
[4] = molecular target: N-terminally acetylated alpha-synuclein (Asyn) (Homo sapiens, UniProt P37840); assay: Seeded α-synuclein aggregation assay (ThT fluorescence, TEM); format: biochemical
Method: (§1) (A, B) Thioflavin-T (ThT) fluorescence curves of N-terminally acetylated alpha-synuclein (Asyn) in the absence (cross) and presence of a 3-fold excess (white circles) of compound. […] Quantitative analysis of Asyn aggregation kinetics was performed by nonlinear regression with sigmoidal fitting to determine the midpoint value (Tm) of the fluorescence curve as well as the fluorescence span. Unpaired two-tailed t-test was performed to test the null hypothesis (p≤0.0332(*), p≤0.002(**), p≤0.0002 (***), p≤0.0001 (****)). […] (C) TEM imaging analysis of the compound/Asyn mixtures. Scale bars correspond to 200 nm.
as §1, with “ThT” for “Thioflavin-T (ThT)”, “circles or triangles)” for “circles)”
(A) ThT fluorescence curves of N-terminally acetylated alpha-synuclein (Asyn) in the absence (cross) and presence of a 3-fold excess (white circles) of compound. […] Quantitative analysis of Asyn aggregation kinetics was performed by nonlinear regression with sigmoidal fitting to determine the midpoint value (Tm) of the fluorescence curve as well as the fluorescence span.
Asyn protein stock solutions were prepared in 50 mM HEPES at pH 7.4 with 100 mM NaCl. Stocks of compounds were prepared in the same buffer (500 μM) or as 10 mM compound in DMSO. […] The microplate was likewise subjected to the incubation and fluorescence measurement program used in in vitro assay 1. After about 2-4 days of incubation, ThT fluorescence emission reached the maximal value and the Asyn fibril-containing mixture was collected as “fibril seed” mixture for subsequent Asyn aggregation experiments.

[5] = molecular target: T1, amylin (human islet amyloid polypeptide or hIAPP) (Homo sapiens, UniProt P10997); assay: Amylin aggregation assay (ThT); format: biochemical; details: 5 μM hIAPP monomers, various doses, 37° C.
T1 construct: 5 μM amylin (human islet amyloid polypeptide or hIAPP) monomers
T1 sequence (P10997 34-70 limits assumed): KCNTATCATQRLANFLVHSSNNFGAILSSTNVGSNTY

[6] = test system: tau neurofibrillary tangles; assay: Formation of tau neurofibrillary tangles in mice; format: in vivo, mouse; details: in feed from 3-4 weeks of age, approximately 9 months
[7] = test system: spread of tau aggregates between nerve cells in PS19 mice; assay: Spreading of tau aggregates after intracerebral injection of tau fibrils in PS19 mice; format: in vivo, mouse; details: in food from two months of age; tau fibril injection four weeks after start
[8] = test system: Tau aggregation in HEK biosensor cells (TauRD^LM-GFP)
TGFBI peptide = TGFBI peptide aggregation assay (ThT, TEM); details: compound/TGFBI mixture
2N4R Tau [9] = molecular target: T2, 2N4R Tau (Homo sapiens, UniProt P10636); assay: Tau pelleting assay (SDS-PAGE of soluble fraction); details: mole ratios 1:3 and 1:5
monomeric Tau (2N4R) = monomeric Tau (2N4R) (Homo sapiens, UniProt P10636)
[10] = molecular target: pre-formed 2N4R Tau fibrils (Homo sapiens, UniProt P10636); assay: Tau fibril dissolution assay (pre-formed fibrils, ThT span, TEM); details: mole ratios 1:0.3 and 1:1
[11] = test system: Tau-induced degeneration of Drosophila eyes (GMR-Gal4/WT Tau); assay: Drosophila neurodegeneration model (Tau-induced eye degeneration); details: oral in food from larvae stage to adult stage; 15, 30, and 44 μM
2N4R Tau [12] = molecular target: T2, 2N4R Tau; assay: Seeded Tau aggregation assay (ThT fluorescence, TEM of the fibrils formed); details: Tau:Ramoplanin A2 mole ratios 1:3 and 1:5; lower Tm = faster aggregation
monomeric 2N4R Tau = monomeric 2N4R Tau (Homo sapiens, UniProt P10636); assay: 1D 1H-NMR titration of Ramoplanin A2 with unlabeled 2N4R Tau (binding epitopes); details: 200 μM Ramoplanin A2 : 30 μM Tau, 37° C.
Sequence of monomeric 2N4R Tau (P10636 1-441 isoform P10636-8): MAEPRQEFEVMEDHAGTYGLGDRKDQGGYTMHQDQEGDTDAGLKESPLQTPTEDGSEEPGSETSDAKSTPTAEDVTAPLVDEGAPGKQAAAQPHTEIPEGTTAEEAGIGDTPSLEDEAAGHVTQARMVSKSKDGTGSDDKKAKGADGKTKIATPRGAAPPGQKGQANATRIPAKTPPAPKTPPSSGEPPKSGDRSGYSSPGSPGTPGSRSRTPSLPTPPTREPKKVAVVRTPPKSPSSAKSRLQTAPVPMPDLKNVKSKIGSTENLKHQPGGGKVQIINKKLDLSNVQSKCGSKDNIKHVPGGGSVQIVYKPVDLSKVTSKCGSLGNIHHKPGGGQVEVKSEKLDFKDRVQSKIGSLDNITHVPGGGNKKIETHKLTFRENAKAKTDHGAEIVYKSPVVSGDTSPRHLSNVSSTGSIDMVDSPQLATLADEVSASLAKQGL

T2 sequence (P10636 1-441 isoform P10636-8): as above
Sequence of monomeric Tau (2N4R) (P10636 1-441 isoform P10636-8): as above
Sequence of pre-formed 2N4R Tau fibrils (P10636 1-441 isoform P10636-8): as above

## CC(C)C/C=C/C=C\C(=O)NC(CC(N)=O)C(=O)NC1C(=O)NC(c2ccc(O)cc2)C(=O)NC(CCCN)C(=O)NC(C(C)O)C(=O)NC(c2ccc(O)cc2)C(=O)NC(c2ccc(O)cc2)C(=O)NC(C(C)O)C(=O)NC(Cc2ccccc2)C(=O)NC(CCCN)C(=O)NC(c2ccc(OC3OC(CO)C(O)C(O)C3OC3OC(CO)C(O)C(O)C3O)cc2)C(=O)NC(C(C)O)C(=O)NC(c2ccc(O)cc2)C(=O)NCC(=O)NC(CC(C)C)C(=O)NC(C)C(=O)NC(c2ccc(O)c(Cl)c2)C(=O)OC1C(N)=O (stereo not shown) [Ramoplanin A2] ({Octa(2Z,4E)dienoyl(7-Me)}-N[X1][Hpg][Orn]T[Hpg][Hpg]TF[Orn][X2]T[Hpg]GLA[ξPhg(3-Cl-4-OH)]; ester 2-C; configuration not given here)
[1]
  percent of cells with aggregates of the prion protein: reduced with increasing concentration
[2]
  percent of cells with aggregates of the prion protein: reduced with increasing concentration
[3]
  pathogenic prion protein PrP^Sc (proteinase K resistant, Western blot): reduction
[3]; 3 μM, 9 d
  total PrP (Western blot): reduction
[3]; 3 μM, 9 d, 1% 22 L scrapie brain homogenate
  prion infection in cellular model: prevents prion infection in cellular model
[4]; 3-fold excess of compound, 25 μM Asyn monomers, 1% (v/v) fibril seeds, 37° C.
  in vitro aggregation of alpha-synuclein (ThT fluorescence): inhibit the in vitro aggregation
[4]; compound/Asyn mixtures
  Asyn fibril morphology (TEM): shorter fibrils
[5]
  in vitro aggregation of amylin (final ThT fluorescence, t=50 h): inhibit the in vitro aggregation of amylin
[6]
  formation of tau neurofibrillary tangles: inhibits the formation of tau neurofibrillary tangles
[7]
  spread of tau aggregates between nerve cells and formation of new tau fibrils: hinders the spread of tau aggregates between nerve cells and the formation of new tau fibrils
[8]; induced by Tau^P301L fibrils, 0.25 μM to 40 μM, 48 hours, with or without lipofectamine
  Tau aggregate formation: decreased aggregate formation
[8]; induced by brain homogenate of PS19 mice, 0.25 μM to 26.5 μM, 24 hours, lipofectamine
  aggregation of Tau: inhibits the aggregation of Tau in HEK biosensor cells
[8]; induced by cell lysate containing Tau aggregates, 0.25 μM to 40 μM, 22 h, lipofectamine
  inhibition of seeded Tau aggregation: showed inhibition of seeded Tau aggregation
[8]; induced by cell lysate, 0.25 μM to 40 μM, 22 h, lipofectamine
  inhibition of seeded Tau aggregation, comparison among the tested compounds: strongest dose-dependent inhibition of seeded Tau aggregation
TGFBI peptide
  TGFBI fibril morphology (TEM): shorter fibrils
2N4R Tau [9]
  amount of soluble Tau (SDS-PAGE): increased
Monomeric Tau (2N4R); 18 μM 15N Tau, mole ratios 1:0.3 to 1:30
  binding to monomeric Tau (CSPs above ~0.0025 ppm with signal broadening I/I0<1): binding of Ramoplanin A2 to specific regions/residues in the monomeric form of Tau
Monomeric Tau (2N4R); 10-fold excess of Ramoplanin A2
  conformational state of Tau (chemical shift dispersion along 1H dimension): Tau remains disordered
[10]
  dissolution of Tau fibrils: not dissolved
[11]
  percent degeneration of Drosophila eyes: lowers the percent degeneration of Drosophila eyes
2N4R Tau [12]
  midpoint values (Tm) of the fluorescence curves: accelerates Tau fibrillization
Monomeric 2N4R Tau
  involvement of the peptide backbone of Ramoplanin A2 in binding (proton CSPs): involved in binding to monomeric Tau
